Reference: patent EP1247528A1, “Pharmaceutical or cosmetic compositions containing extracts from Arachis hypogaea L” (Cognis France S.A., priority 2001, dated 2002)

Experiments:
[1] = Antioxidative capacity: inhibition of lipid peroxidation in liposomes (AOP50); format: biochemical; settings: concentration at which lipid peroxidation is reduced by 50 %; Fe(II) ascorbate, 37 °C, 45 min, MDA-thiobarbituric acid at 532 nm
Protocol: Als Maß für die antioxidative Kapazität der Erdnusshäutchen Extrakte wurde ihre Fähigkeit bestimmt, die Lipidperoxidation in Liposomen zu verhindern. Dazu wurde eine 0,2 Gew.-%ige Liposomen Suspension aus Sojalecithin in Phosphatpuffer hergestellt. Die Lipidperoxidation wurde durch Zugabe eines Eisen(II)ascorbat Komplexes (10mM Fe(II)SO4, 50 mM Ascorbat) initiiert. Die Inkubation wurde bei 37 °C für 45 min. durchgeführt. Als Endprodukt der Lipidperoxidation entsteht Malondialdeyd, welches über eine Farbreaktion mit Thiobarbitursäure quantifiziert wird (photometrische Bestimming des Malondialdehyd-Thiobarbitursäure Komplexes bei 532 nm). Zur Bestimmung der antioxidativen Kapazität der Erdnusshäutchen Extrakte wurden diese in unterschiedlichen Konzentration vor der Zugabe des Eisen(II)ascorbat Komplexes zum Inkubationsansatz gegeben. Ermittelt wurde die Konzentration an Pflanzenextrakt (in µg/ml), bei der die Lipidperoxidation um 50 % verringert ist (= AOP50) im Vergleich zur Bestimmung ohne Zusatz an Pflanzenextrakt. D.h. je geringer die angegebene Konzentration AOP50, desto höher ist die antioxidative Kapazität des untersuchten Erdnussextraktes. Als Referenzsubstanz diente das Antioxidans n-Propylgallat. Tab.

[2] = DPPH-Test (chemical test, activity against free radicals)
Text: (§1) Die optische Dichte des Extraktes lag bei 513 nm. Als erstes Testsubstrat wurde Diphenylpicrylhydrazyl (DPPH) gewählt, ein purpurrot gefärbtes stabiles Radikal, welches durch Inkontaktbringen mit Radikalfängern in sein ungefärbtes Leucoderivat übergeht. Der Farbwechsel kann photometrisch verfolgt werden. Die Meßergebnisse sind in Tabelle 2 zusammengefaßt ("DPPH-Test").. In einem weiteren Test wurde Xanthin Oxidase als Testsystem gewählt. Das Enzym bewirkt bei oxidativem Stress die Umwandlung von Purinbasen, wie z.B. Adenin oder Guanin in […], wobei die intermediär gebildeten Sauerstoffradikale durch Reaktion mit Luminol über die Lumineszenz nachgewiesen und quantitativ bestimmt werden können. In Gegenwart von Substanzen mit radikalfangenden Eigenschaften vermindert sich die Lumineszenzausbeute. Der NBT-Wert bestimmt den Gehalt von […], welches aus NBT durch das Sauerstoffradikal gebildet wird. Die optische Dichte wurde bei 540 nm bestimmt.

humanen Fibroblasten = assay: Cell protection against UVA on human fibroblasts cultured in vitro; format: cell-based; settings: UVA 20 J/cm^2; 0,0003 % test substance
Protocol: Methode: Zur Durchführung dieser Tests wurde ein definiertes Kulturmedium mit den Fibroblasten mit fötalem Kälberserum beimpft und der Pflanzenextrakt (in dem definierten Medium mit 10 % Fötalem Kälberserum) 72 Stunden nach dem Beimpfen zugegeben.
Nach 48 stündiger Inkubation bei 37 °C und einem CO2-Gehalt von 5 % wurde das Kulturmedium durch Saline-Lösung (physiologische NaCI-Lösung) ersetzt und die Fibroblasten wurden mit einer UVA-Dosis bestrahlt (365 nm, 20 J/cm^2; Röhren: MAZDA FLUOR TFWN40).
Nach der Beendigung der Bestrahlung wurde der MDA-Spiegel (Malonaldialdehyd-Spiegel) in der überstehenden Natriumchlorid-Lösung quantitativ durch Reaktion mit Thiobarbitursäure bestimmt.
Außerdem wurde der Gehalt an Proteinen nach der Methode von Bradford bestimmt und der Gehalt an GSH untersucht wobei es sich um reduziertes Glutathion handelt. Der Gehalt an GSH wurde bstimmt nach der Methode von Hissin (Hissin PJ, Hilf R., A fluorometric method for determination of oxydised and reduced glutathione tissues, Anal. Biochem. 74, 214-226, 1976). Tab.

Xanthin Oxidase [3] = assay: Luminol + Microperoxydase test (xanthine oxidase system); format: biochemical
Text: as §1
(§2) Diese Ergebnisse sind in Tabelle 3 zusammengefaßt; wieder ist die Inhibierung in %-absolut angegeben ("Luminol-Test"). Tab.

Xanthin Oxidase [4] = assay: Luminol-Test (xanthine oxidase system, luminescence); format: biochemical
Text: as §1, §2

Xanthin Oxidase [5] = assay: NBT test (xanthine oxidase system, optical density at 540 nm); format: biochemical
Text: as §1, §2

[6] = Electron spin resonance spectroscopy (ESR), radical scavenging with spin trap DMPO; settings: 5 mM solution (comparison)
Text: Die Methode der Elektronenspinresonanz Spektroskopie beruht auf dem Prinzip der Generierung kurzlebiger Radikale über chemische Radikalgeneratoren, der Stabilisierung und Akkumulierung der Radikale mittels Radikalfänger (Spin-Trapper-Substanzen) und der Detektion der für die einzelnen Radikale typischen ESR-Spektren. Die radikalfangenden Eigenschaften der zu untersuchenden Substanzen werden durch die Abnahme der Signalintensitäten der getrappten Radikale charakterisiert. Im vorliegenden Fall wurde als Radikal Fänger (Spin Trapper) DMPO (5,5-Dimethyl-1-pyrrolin-N-oxid) verwendet. Die Signalintensität des mit Hilfe des DMPO gebildeten stabilen DMPO-Hydroxyadduktes wurde 100 % gesetzt. Die Abnahme dieses Signals in Abhängigkeit von der Konzentration des eingesetzten Pflanzenextraktes, ist ein Nachweis für die Radikal fangenden Eigenschaften der Extrakte.
Der Extrakt aus Beispiel 1 wurde mittels der ESR Spektroskopie untersucht. Bereits in einer Konzentration von 0,01 Gew.-% führte dieser Extrakt zu einer Abnahme des DMPO-Hydroxyaddukt Signals um 79 % auf ein Restsignal von 21 %. Bei einer Konzentration von 0,05 % zeigte sich eine Abnahme des Signals um 89 % und bei einer Konzentration von 0,5 % fand eine völlige Löschung des Signals statt. Als Vergleich diente eine 5 mM α-Tocopherol Lösung, die eine Abnahme des Signals um 65 % bewirkte.

[7] = test system: menschlichen Keratinozyten; assay: Cell protection against UVB on human keratinocytes cultured in vitro; format: cell-based; settings: UVB 50 mJ/cm^2; 0,03 % test substance
Protocol: Methode: Der Effekt von UVB-Strahlung wurde an Keratinocyten in vitro untersucht indem die Freisetzung des Cytoplasaenzyms LDH (Lactat Dehydrogenase) bestimmt wurde. Dieses Enzym dient als Marker für eine Zellschädigung.
Zur Durchführung der Tests wurde ein definiertes Medium, das fötales Kälberserum enthält, mit den Keratinozyten beimpft und der Pflanzenextrakt (mit Saline-Lösung verdünnt) 72 Stunden nach dem Beimpfen zugegeben. […]
Nach weiterer 1 tägiger Inkubation bei 37 °C und bei 5 % CO2 wurde der LDH-Gehalt im Überstand bestimmt. Der Gehalt von LDH- (Lactatdehydrogenase) wurde mittels einer Enzymreaktion bestimmt (verwendetes Kit zur Untersuchung des LDH Gehaltes von der Firma Roche). Die Anzahl adhärenter Keratinozyten wird (nach Trypsinbehandlung) mit einem Partikelzählgerät bestimmt. Tab.

Compound: CCCOC(=O)c1cc(O)c(O)c(O)c1 [n-Propylgallat]
- AOP50 [1]: 2,9 µg/ml

Compound: Tocopherol
- EC50 in % DPPH-Test [2]: 0,0067%
- Freigesetzter MDA (humanen Fibroblasten): 19 % im Vergleich zur Kontrolle
- GSH/Protein (humanen Fibroblasten): 77 % im Vergleich zur Kontrolle
- Zellproteine (humanen Fibroblasten): 95 % im Vergleich zur Kontrolle
- EC50 in % Luminol + Microperoxydase (Xanthin Oxidase [3]): Kein Effekt bis zu 1%
- EC50 in % Luminol (Xanthin Oxidase [4]): Kein Effekt bis zu 1%
- EC50 in % NBT (Xanthin Oxidase [5]): Kein Effekt bis zu 1%

Compound: Cc1c(C)c2c(c(C)c1O)CC[C@@](C)(CCC[C@H](C)CCC[C@H](C)CCCC(C)C)O2 [α-Tocopherol]
- Abnahme des Signals [6]: 65%

Compound: CC(=O)Oc1ccccc1C(=O)O [Aspirin]
- Anzahl Keratinocyten [7]: 52 % im Vergleich zur Kontrolle
- Gehalt an LDH [7]: 46 % im Vergleich zur Kontrolle
- Gehalt an PGE2 [7]: 4 % im Vergleich zur Kontrolle

Compound: O=C1O[C@H]([C@@H](O)CO)C(O)=C1O [Ascorbinsäure]
- EC50 in % DPPH-Test [2]: 0,0013%
- EC50 in % Luminol + Microperoxydase (Xanthin Oxidase [3]): 0,0058%
- EC50 in % Luminol (Xanthin Oxidase [4]): 0,0006%
- EC50 in % NBT (Xanthin Oxidase [5]): 0,5909%
